From ChEMBL document CHEMBL3885881, “DrugMatrix”

Species on record: Rattus norvegicus
Assay: DrugMatrix - Regimen: Daily Repeat
Assay type: toxicity, organism-based, Sprague-Dawley
Parameters: regimen Daily Repeat, gender Male, age 6-8 weeks
Details: in vivo, po, 60 mg/kg, route oral GAVAGE, dose level High, vehicle 100 % WATER; for ABSOLUTE BASOPHIL / ABSOLUTE EOSINOPHIL / ABSOLUTE LYMPHOCYTE / ABSOLUTE MONOCYTE / ABSOLUTE SEGMENTED NEUTROPHIL / BASOPHIL / EOSINOPHIL / ERYTHROCYTE COUNT / HEMATOCRIT / HEMOGLOBIN / LEUKOCYTE COUNT / LYMPHOCYTE / MEAN CORPUSCULAR HEMOGLOBIN / MEAN CORPUSCULAR HEMOGLOBIN CONCENTRATION / MEAN CORPUSCULAR VOLUME / MONOCYTE / NEUTROPHIL / NUCLEATED RED BLOOD CELLS / PLATELET COUNT: tissue Blood
[1] = 72 h, tissue Plasma, time 3 day
[2] = 120 h, tissue Plasma, time 5 day

`Nc1ccc(O)c(N)c1` [2,4-DIAMINOPHENOL] was tested, and the “ABSOLUTE BASOPHIL” value (72 h, time 3 day) was 0 CELLS/uL, the “ABSOLUTE EOSINOPHIL” value (72 h, time 3 day) was 193.67 CELLS/uL and the “ABSOLUTE LYMPHOCYTE” value (72 h, time 3 day) was 11960 CELLS/uL. The “ABSOLUTE MONOCYTE” value (72 h, time 3 day) was 874.33 CELLS/uL, the “ABSOLUTE SEGMENTED NEUTROPHIL” value (72 h, time 3 day) was 1505.33 CELLS/uL and the BASOPHIL (72 h, time 3 day) was 0%. The EOSINOPHIL (72 h, time 3 day) was 1.33%, the “ERYTHROCYTE COUNT” value (72 h, time 3 day) was 5.59 x10E6/uL and the HEMATOCRIT (72 h, time 3 day) was 34.17%. For the same molecule, the HEMOGLOBIN (72 h, time 3 day) was 12.63 G/DL, the “LEUKOCYTE COUNT” value (72 h, time 3 day) was 14.53 x10E3/uL and the LYMPHOCYTE (72 h, time 3 day) was 82.33%. For the same molecule, the “MEAN CORPUSCULAR HEMOGLOBIN” value (72 h, time 3 day) was 22.6 pg, the “MEAN CORPUSCULAR HEMOGLOBIN CONCENTRATION” value (72 h, time 3 day) was 36.97 G/DL and the “MEAN CORPUSCULAR VOLUME” value (72 h, time 3 day) was 61.1 fL. For the same molecule, the MONOCYTE (72 h, time 3 day) was 6%, the NEUTROPHIL (72 h, time 3 day) was 10.33% and the “NUCLEATED RED BLOOD CELLS” value (72 h, time 3 day) was 0 /100WBC. For the same molecule, the “PLATELET COUNT” value (72 h, time 3 day) was 1050 x10E3/uL, the “ALANINE AMINOTRANSFERASE” value [1] was 72 u/L and the ALBUMIN [1] was 4.43 G/DL. The “ALKALINE PHOSPHATASE” value [1] was 400.67 u/L, the “ASPARTATE AMINOTRANSFERASE” value [1] was 94 u/L and the “BLOOD UREA NITROGEN” value [1] was 17.67 mg/dL. For the same molecule, the “CARBON DIOXIDE” value [1] was 23.33 mmol/L, the CHLORIDE [1] was 102.67 MEQ/L and the CHOLESTEROL [1] was 68 mg/dL. For the same molecule, the CREATININE [1] was 0.19 mg/dL, the GLUCOSE [1] was 165 mg/dL and the “LACTATE DEHYDROGENASE” value [1] was 314.67 u/L. The LIPASE [1] was 8.33 u/L, the PHOSPHORUS [1] was 12.5 mg/dL and the POTASSIUM [1] was 6.48 MEQ/L. For the same molecule, the SODIUM [1] was 144.2 MEQ/L, the “TOTAL BILIRUBIN” value [1] was 0.23 mg/dL and the “TOTAL PROTEIN” value [1] was 6 G/DL. The “URIC ACID” value [1] was 1.63 mg/dL, the “ABSOLUTE BASOPHIL” value (120 h, time 5 day) was 0 CELLS/uL and the “ABSOLUTE EOSINOPHIL” value (120 h, time 5 day) was 0 CELLS/uL. The “ABSOLUTE LYMPHOCYTE” value (120 h, time 5 day) was 5905 CELLS/uL, the “ABSOLUTE MONOCYTE” value (120 h, time 5 day) was 88.67 CELLS/uL and the “ABSOLUTE SEGMENTED NEUTROPHIL” value (120 h, time 5 day) was 839.67 CELLS/uL. For the same molecule, the BASOPHIL (120 h, time 5 day) was 0%, the EOSINOPHIL (120 h, time 5 day) was 0% and the “ERYTHROCYTE COUNT” value (120 h, time 5 day) was 5.11 x10E6/uL. The HEMATOCRIT (120 h, time 5 day) was 31.43%, the HEMOGLOBIN (120 h, time 5 day) was 11.77 G/DL and the “LEUKOCYTE COUNT” value (120 h, time 5 day) was 6.83 x10E3/uL. The LYMPHOCYTE (120 h, time 5 day) was 86.33%, the “MEAN CORPUSCULAR HEMOGLOBIN” value (120 h, time 5 day) was 23.1 pg and the “MEAN CORPUSCULAR HEMOGLOBIN CONCENTRATION” value (120 h, time 5 day) was 37.43 G/DL. The “MEAN CORPUSCULAR VOLUME” value (120 h, time 5 day) was 61.57 fL, the MONOCYTE (120 h, time 5 day) was 1.33% and the NEUTROPHIL (120 h, time 5 day) was 12.33%. For the same molecule, the “NUCLEATED RED BLOOD CELLS” value (120 h, time 5 day) was 0 /100WBC, the “PLATELET COUNT” value (120 h, time 5 day) was 990.67 x10E3/uL and the “ALANINE AMINOTRANSFERASE” value [2] was 50.33 u/L. The ALBUMIN [2] was 4.63 G/DL, the “ALKALINE PHOSPHATASE” value [2] was 303.67 u/L and the “ASPARTATE AMINOTRANSFERASE” value [2] was 73 u/L. The “BLOOD UREA NITROGEN” value [2] was 12.67 mg/dL, the “CARBON DIOXIDE” value [2] was 33 mmol/L and the CHLORIDE [2] was 99.67 MEQ/L. It also gave a CHOLESTEROL [2] of 71.67 mg/dL, a CREATININE [2] of 0.15 mg/dL and a GLUCOSE [2] of 135.33 mg/dL. The “LACTATE DEHYDROGENASE” value [2] was 84.67 u/L, the LIPASE [2] was 8.67 u/L and the PHOSPHORUS [2] was 12.63 mg/dL. The POTASSIUM [2] was 6.25 MEQ/L, the SODIUM [2] was 146.5 MEQ/L and the “TOTAL BILIRUBIN” value [2] was 0.23 mg/dL. The “TOTAL PROTEIN” value [2] was 6.5 G/DL.
